Here are results for 25 molecules from patent US6251932A, “Immunophilin ligands” (ASTA Medica AG, priority 1998, dated 2001).

For one data set, the target named is human cyclophilin B (Homo sapiens, UniProt P23284). Put plainly: PPIase test: inhibition of human cyclophilin B (Suc-Ala-Ala-Pro-Phe-Nan, chymotrypsin). The data set is classed as biochemical. As to conditions: Compound [10 μmol]; preincubated 15 minutes at 4° C. with 10 nmol Cyp B. Here is the method:
The compounds of Formula I of the present invention are distinguished by immunophilin binding and inhibit isomerase activity. This prolyl isomerase activity is tested according to a conventional, well known enzyme test described in G. Fischer, H. Bang. Mech, Biomed. Biochim. Acta, 43, 1101-1111; G. Fischer, H. Bang, A Schellenberger, Biochim. Biophys. Acta, 791, 87-97, 1984; D. H. Rich et al., J. Med. Chem. 38, 4164-4170, 1995.
The compounds of Formula I of the present invention are distinguished by immunophilin binding and inhibit its peptidyl-prolyl cis-trans isomerase (PPlase) activity. […] This PPlase activity is determined by the aforementioned well known enzyme test.
The compounds of Formula I are preincubated at 4° C. for 15 minutes together with 10 nmol of Cyp B. The enzyme reaction is started using the test peptide Suc-Ala-Ala-Pro-Phe-Nan after addition of chymotrypsin and HEPES buffer. The change in extinction at 390 nm is then monitored and analyzed. The photometrically determined change in extinction results from two subreactions: a) the rapid chymotryptic cleavage of the trans peptide; b) the nonenzymatic cis-trans isomerization, which is catalysed by cyclophilins.

In data set [1] the test system is T cells stimulated with OKT-3. Kind of data set: IL-2 proliferation test: 3H-thymidine incorporation in T cells stimulated with OKT-3 (CD3-induced proliferation). The data set is classed as cell-based. The settings on record: Compound [10 μmol], OKT-3 1 μg/ml, 45 hours; for inhibition: T-cell. The procedure:
The IL-2 proliferation test is based on the incorporation of ^3 H-thymidine in T cells stimulated with OKT-3 (human anti-CD-3-antibodies) and is carried out by inoculating 100,000 T cells into microtitre plates in 150 μl of culture medium per well, stimulated by addition of OKT-3 (1 μg/ml) and incubated for 45 hours in each case with one of the compounds of Formula I. After this incubation time, 10 μl of the ^3 H-thymidine solution (0.5 μCi) are pipetted into each well. The mixture is then incubated in a 5% CO2 atmosphere at 37° C. for 6 hours. After harvesting the cells, the radioactivity is quantified in a B-counter.

The conditions of data set [2]: kidneys, neurotoxicity; cited from earlier work.
The subject of a further data set is FKBP. The settings on record: cited from earlier work.
For data set [3], the system named is bronchial asthma and underlying inflammations. The settings on record: animal experiments and clinical studies; cited from earlier work.

Molecules are shown by their SMILES.

human cyclophilin B, sequence (P23284 34-216): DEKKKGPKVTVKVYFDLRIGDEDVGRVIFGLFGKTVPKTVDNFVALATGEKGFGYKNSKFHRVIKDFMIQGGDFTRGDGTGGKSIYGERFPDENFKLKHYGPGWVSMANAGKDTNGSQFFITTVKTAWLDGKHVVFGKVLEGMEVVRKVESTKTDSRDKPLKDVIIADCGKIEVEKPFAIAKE

Regarding `COCCNC(=O)[C@@H]1Cc2ccccc2N1C(=O)[C@@H]1CCCN1S(=O)(=O)c1ccc(N)cc1` [Example 7, (^2 S)-1-[((2S)-1-(4-aminophenylsulfonyl)prolyl)carbonyl]-N-(2-methoxyethyl)indoline-2-carbamide], the inhibition at 10 µM on human cyclophilin B is 40%. Further, the inhibition in data set [1] was 79%.
Consider `COCCNC(=O)C1Cc2ccccc2N1C(=O)C1Cc2ccccc2N1S(=O)(=O)c1ccc(NC(C)=O)cc1` (racemic) [Example 5, (2R,S)-1-[((2R,S)-1-(4-acetylaminophenylsulfonyl)indolin-2-yl)-carbonyl]-N-(2-methoxyethyl)indoline-2-carbamide], for which the inhibition at 10 µM against human cyclophilin B was 20 to 40%. Besides, the inhibition in data set [1] came out at 85%.
In the case of `CC(=O)Nc1ccc(S(=O)(=O)N2c3ccccc3C[C@@H]2C(=O)O)cc1` [Example 21, (2R)-[4-(acetylamino)phenylsulfonyl]indoline-2-carboxylic acid], the inhibition at 10 µM on human cyclophilin B lay within 0 to 20%. In data set [1], this molecule had an inhibition of 12%.
`COCCNC(=O)[C@@H]1Cc2ccccc2N1S(=O)(=O)c1cccc2cccnc12` [Example 10, (2S)-1-[(8-quinolinylsulfonyl)]-N-(2-methoxyethyl)indolinecarbamide] had an inhibition at 10 µM at human cyclophilin B of 20 to 40%. Also, the inhibition in data set [1] is 59%.
For the molecule `Cc1ccc(S(=O)(=O)N2c3ccccc3C[C@H]2C(=O)N2c3ccccc3C[C@H]2C(=O)NCCCn2ccnc2)cc1` [Example 16, (2S)-1-[((2S)-1-(4-methylphenylsulfonyl)indolin-2-yl)carbonyl]-N^3-(N-propylimidazole)indoline-2-carbamide], on human cyclophilin B, the inhibition at 10 µM was 20 to 40%. For the same molecule, the inhibition in data set [1] turned out to be 54%.
For the molecule `Cc1ccc(S(=O)(=O)N2c3ccccc3C[C@H]2C(=O)N2c3ccccc3C[C@H]2C(=O)Nc2ccncc2)cc1` [Example 19, (2S)-1-[((2S)-1-(4-methylphenylsulfonyl)indolin-2-yl)carbonyl]-(4-pyridine)indoline-2-carbamide], testing at 10 µM against human cyclophilin B gave an inhibition of 40%. In data set [1], this molecule displayed an inhibition of 64%.
For the molecule `COCCNC(=O)[C@@H]1Cc2ccccc2N1C(=O)[C@@H]1Cc2ccccc2N1S(=O)(=O)c1ccc(NC(C)=O)cc1` [Example 1], the inhibition at 10 µM at human cyclophilin B came out at 40%. Moreover, in data set [1], the inhibition is 83%.
The like results for `COCCNC(=O)[C@@H]1Cc2ccccc2N1C(=O)[C@H]1Cc2ccccc2N1S(=O)(=O)c1ccc(NC(C)=O)cc1` [Example 3] were, in that order, 40% and 84%.
The like results for `COC(=O)[C@H]1Cc2ccccc2N1C(=O)[C@H]1Cc2ccccc2N1S(=O)(=O)c1ccc(NC(C)=O)cc1` (racemic) [Example 22, Methyl (2RS)-1-({(2RS)-1-[4-(acetylamino)phenylsulfonyl]indolin-2-yl}carbonyl)indoline-2-carboxylate] were, in that order, 30% and 43%.
Molecule `COCCNC(=O)[C@@H]1Cc2ccccc2N1C(=O)[C@@H]1Cc2ccccc2N1S(=O)(=O)c1ccc2ccccc2c1` [Example 15, (2S)-1-[((2S)-1-(2-Naphthalenylsulfonyl)indolin-2-yl)carbonyl]-N-(2-methoxyethyl)indoline-2-carbamide] showed an inhibition at 10 µM against human cyclophilin B of 20%. This molecule yielded an inhibition in data set [1] of 56%.
For the molecule `CC(=O)Nc1ccc(S(=O)(=O)N2c3ccccc3C[C@@H]2C(=O)N2c3ccccc3C[C@@H]2C(=O)O)cc1` (racemic) [Example 23, (2RS)-1-({(2RS)-1-[4-(acetylamino)phenylsulfonyl]indolin-2-yl}-carbonyl)indoline-2-carboxylic acid], the inhibition at 10 µM against human cyclophilin B fell in the range of 0 to 20%. In data set [1], this molecule displayed an inhibition of 46%.
Regarding `CO[C@H]1C[C@@H]2CC[C@@H](C)[C@@](O)(O2)C(=O)C(=O)N2CCCC[C@H]2C(=O)O[C@H]([C@H](C)C[C@@H]2CC[C@@H](O)[C@H](OC)C2)CC(=O)[C@H](C)/C=C(\C)[C@@H](O)[C@@H](OC)C(=O)[C@H](C)C[C@H](C)/C=C/C=C/C=C/1C` [rapamycin], in data set [2], the side effects result is “manifold side effects, in particular of the kidneys, and neurotoxicity”.
`COC(=O)[C@H](CCCCNC(=O)OCc1ccccc1)NC(=O)[C@@H]1Cc2ccccc2N1S(=O)(=O)c1ccc(NC(C)=O)cc1` [Example 12, (S)-N-{(2S)-1-[4-(acetylamino)phenylsulfonyl]indolin-2-yl}carbonyl-N-(benzyloxycarbonyl)lysine methyl ester]: 10 µM produced 60% inhibition against human cyclophilin B. In addition, the inhibition in data set [1] was 79%.
In the case of `COC(=O)/C=C/c1ccc(NC(=O)[C@@H]2Cc3ccccc3N2S(=O)(=O)c2ccc(NC(C)=O)cc2)cc1` [Example 13, Methyl (E)-({(2S)-1-[4(acetylamino)phenylsulfonyl]indoln-2-yl}-carbonyl)-4-(aminophenyl)acrylate], the inhibition at 10 µM at human cyclophilin B was 0 to 20%. Moreover, the inhibition in data set [1] stood at 46%.
Regarding `COCCNC(=O)[C@@H]1Cc2ccccc2N1C(=O)C1CCN(S(=O)(=O)c2ccc(N)cc2)CC1` [Example 8, (2S)-1-[((2S)-1-(4-aminophenylsulfonyl)-4-piperidinyl)carbonyl]-N-(2-methoxyethyl)indoline-2-carbamide], the inhibition at 10 µM against human cyclophilin B is 40 to 60%. The inhibition in data set [1] is 71%.
The like results for `COC(=O)[C@H]1Cc2ccccc2N1S(=O)(=O)c1ccc(NC(C)=O)cc1` [Example 20, Methyl (2R)-[4-(acetylamino)phenylsulfonyl]indoline-2-carboxylate] were, in that order, 0 to 20% and 15%.
With `Cc1ccc(S(=O)(=O)N2c3ccccc3C[C@H]2C(=O)N2c3ccccc3C[C@H]2C(=O)NCCN2CCOCC2)cc1` [Example 17, (2S)-1-[((2S)-1-(4-methylphenylsulfonyl)indolin-2-yl)carbonyl]-N^2-(N-ethylmorpholine)indoline-2-carbamide], on human cyclophilin B, the inhibition at 10 µM worked out at 40%. The molecule further came in with an inhibition in data set [1] of 57%.
`COCCNC(=O)[C@H]1Cc2ccccc2N1C(=O)[C@@H]1Cc2ccccc2N1S(=O)(=O)c1ccc(NC(C)=O)cc1` [Example 2] had an inhibition at 10 µM against human cyclophilin B of 40%. The same molecule had an inhibition in data set [1] of 85%.
For the molecule `CC(=O)Nc1ccc(S(=O)(=O)N2c3ccccc3C[C@H]2C(=O)N[C@@H](CC(C)C)C(=O)O)cc1` [Example 11], the “Inhibition [%] of PPIase activity” value at human cyclophilin B turned out to be 40%. Further, the “CD3-induced inhibition of proliferation in [%]” value in data set [1] was determined as 61%.
For `COCCNC(=O)[C@@H]1Cc2ccccc2N1C(=O)C1CCN(S(=O)(=O)c2ccc(NC(C)=O)cc2)CC1` [Example 9], the inhibition at 10 µM on human cyclophilin B lay in the range of 40 to 60%. The inhibition in data set [1] amounted to 75%.
The like results for `COCCNC(=O)[C@@H]1Cc2ccccc2N1C(=O)[C@@H]1Cc2ccccc2N1S(=O)(=O)c1ccc(N)cc1` [Example 6, (2S)-1-[((2S)-1-(4-aminophenylsulfonyl)indolin-2-yl)carbonyl]-N-(2-methoxyethyl)indoline-2-carbamide] were, in that order, 40% and 84%.
For `Cc1ccc(S(=O)(=O)N2c3ccccc3C[C@H]2C(=O)N2c3ccccc3C[C@H]2C(=O)NCCc2ccccn2)cc1` [Example 18, (2S)-1-[((2S)-1-(4-methylphenylsulfonyl)indolin-2-yl)carbonyl]-N^2-(ethyl-2-pyridine)indoline-2-carbamide], the inhibition at 10 µM against human cyclophilin B turned out to be 40%. The inhibition in data set [1] amounted to 59%.
At human cyclophilin B, `COCCNC(=O)[C@@H]1Cc2ccccc2N1C(=O)[C@@H]1Cc2ccccc2N1S(=O)(=O)c1cccc2ccccc12` [Example 14, (2S)-1-[((2S)-1-(1-naphthalenylsulfonyl)indolin-2-yl)carbonyl]-N-(2-methoxyethyl)indoline-2-carbamide] had an inhibition at 10 µM of 20%. Moreover, the inhibition in data set [1] stood at 48%.
Consider `C=CC[C@@H]1/C=C(\C)C[C@H](C)C[C@H](OC)[C@H]2O[C@@](O)(C(=O)C(=O)N3CCCC[C@H]3C(=O)O[C@H](/C(C)=C/[C@@H]3CC[C@@H](O)[C@H](OC)C3)[C@H](C)[C@@H](O)CC1=O)[C@H](C)C[C@@H]2OC` [FK 506], for which the “binding to FKBP” value in the data set on FKBP is reported as “bind with high affinity”. The side effects entry in data set [2] is “manifold side effects, in particular of the kidneys, and neurotoxicity”. The “therapeutic effect in bronchial asthma” value in data set [3] was “favorable therapeutic in bronchial asthma and underlying inflammations”.
In the case of `COCCNC(=O)[C@H]1Cc2ccccc2N1C(=O)[C@H]1Cc2ccccc2N1S(=O)(=O)c1ccc(NC(C)=O)cc1` [Example 4], testing at 10 µM against human cyclophilin B gave an inhibition of 60%. This molecule also registered an inhibition in data set [1] of 85%.
